Patent US11753403B2, “EIF4E inhibitors and uses thereof” (PIC Therapeutics, Inc., priority 2020, dated 2023)

target: Human eIF4E (aa 28-217) / biotin labeled 4G2 peptide (Homo sapiens (Human), UniProt P06730); assay: Human eIF4E/4G2 binding assay (TR-FRET); conditions: Human eIF4E/4G2 TR-FRET binding assay; head says IC50, legend says EC50
Protocol: Example 5. Compound Testing in Human eIF4E/4G2 Binding Assay
Human eIF4E (aa 28-217) with a C-terminal His-tag was expressed in E. coli in inclusion bodies. The protein was solubilized with 8 M urea and purified under denaturing conditions using nickel-charged HisTrap HP columns (GE Healthcare). The purified protein was then refolded by diluting in 20 mM Hepes pH 7.0, 0.5 M NaCl, 1 mM DTT, 1 mM EDTA, 0.5 M arginine plus 6 M urea, and then dialyzing overnight into the same buffer without the urea. The protein was further dialyzed into 20 mM Hepes, pH 6.5, 50 mM NaCl, 1 mM EDTA, 1 mM DTT, and concentrated using Hitrap SP sepharose FF columns (GE Healthcare). The concentrated protein was dialyzed into 20 mM Hepes, pH 7.0, 0.5M NaCl, 5 mM DTT and 10% glycerol, and stored at −80° C. until use.
Test compounds (3.43 mM stock in DMSO) were diluted 2-fold in series in DMSO (10 concentration points). Compound solutions (1.2 μl/well) were added into black 384-well polypropylene microplates (Matrix, Thermal Scientific). Twenty-two microliters per well of Assay Buffer (50 mM NaPi, pH 6.5, 50 mM KCl, 1 mM DTT and 0.5 mg/ml gamma globulin) and eight microliters per well of 82.5 nM purified eIF4E in Assay Buffer were added. The samples were incubated at room temperature (20-23° C.) for 4 hours. Biotin labeled 4G2 peptide (Ac-Lys-Gln-Tyr-Asp-Arg-Glu-Phe-Leu-Leu-Asp-Phe-Gln-Phe-Met-Pro-Lys(Aha-Bio)-NH2, 1.75 μM stock in DMSO) was diluted to 0.14 μM in Assay Buffer (without DTT) and 5 μl/well was added. The samples were incubated at room temperature for 20 min. Five microliters per well of 6.4 nM Eu-streptavidin (Eu-SA, Perkin Elmer) and 80 nM Allophycocyanin (APC)-anti His antibody (Columbia Biosciences) in Assay Buffer (without DTT) were then added and the samples were incubated at room temperature for 20 min.
Assay signals were monitored by reading excitation at 340 nm and emission fluorescence at 615 nm and 665 nm on an Envision reader (Perkin Elmer). Normalized TR-FRET (time-resolved fluorescence resonance energy transfer) assay signal (Rn) was calculated by the formula: Rn=[(A−Ba−C×D)/(D−Bd)]×(Dc−Bd) Where A is the fluorescence intensity of the sample at 665 nm, • D is the fluorescence intensity of the sample at 615 nm, • Ba and Bd are plate backgrounds at 665 nm and 615 nm, respectively, • Dc is the fluorescence intensity of 0.78 nM Eu-SA in the assay buffer at 615 nm The cross-talk factor (C) is determined by the following formula: C=(Ac−Ba)/(Dc−Bd) Where Ac is the fluorescence intensity of 0.78 nM Eu-SA in the assay buffer at 665 nm.
IC50 values were calculated using xLFit program (IDBS). Table 2 below lists EC50 of some compounds, wherein A represents EC50≤1 uM; B represents 1 uM<EC50≤10 uM; and C represents EC50>10 uM.

Human eIF4E (aa 28-217) / biotin labeled 4G2 peptide, sequence (P06730 28-217): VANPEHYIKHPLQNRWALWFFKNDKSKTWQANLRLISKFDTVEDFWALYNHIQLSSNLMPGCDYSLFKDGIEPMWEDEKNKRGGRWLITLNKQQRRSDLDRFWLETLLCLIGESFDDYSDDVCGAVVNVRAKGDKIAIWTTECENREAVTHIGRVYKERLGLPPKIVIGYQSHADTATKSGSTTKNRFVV

Row | SMILES | IC50
1 | CC(C)Cc1sc(N(CCC(=O)NCCN)Cc2ccccc2)nc1-c1ccc(Cl)c(Cl)c1 [I-131, N-(2-aminoethyl)-3-(benzyl(4-(3,4-dichlorophenyl)-5-isobutylthiazol-2-yl)amino)propanamide] | 1 to 10 µM
2 | CC(C)Cc1sc(N(CCC(=O)N(C)CCN)Cc2ccccc2)nc1-c1ccc(Cl)c(Cl)c1 [I-132] | 1 to 10 µM
3 | CC(C)Cc1sc(N(CCC(=O)N2CCN(C)CC2)Cc2ccccc2)nc1-c1ccc(Cl)c(Cl)c1 [I-133, 3-(benzyl(4-(3,4-dichlorophenyl)-5-isobutylthiazol-2-yl)amino)-1-(4-methylpiperazin-1-yl)propan-1-one] | > 10 µM
4 | CC(C)Cc1sc(N(CCC(=O)N2CCNCC2)Cc2ccccc2)nc1-c1ccc(Cl)c(Cl)c1 [I-134] | 1 to 10 µM
5 | CC(C)Cc1sc(N(CCC(=O)N2CCC(CN)CC2)Cc2ccccc2)nc1-c1ccc(Cl)c(Cl)c1 [I-135] | 1 to 10 µM
6 | CC(C)Cc1sc(NCC(NC(=O)c2ccccc2)C(=O)O)nc1-c1ccc(Cl)c(Cl)c1 (stereo not shown) [I-136, 2-benzamido-3-(4-(3,4-dichlorophenyl)-5-isobutylthiazol-2-ylamino)propanoic acid] | 1 to 10 µM
7 | CC(C)Cc1sc(NCC(NC(=O)OC(C)(C)C)C(=O)O)nc1-c1ccc(Cl)c(Cl)c1 (stereo not shown) [I-137, 2-(tert-butoxycarbonylamino)-3-(4-(3,4-dichlorophenyl)-5-isobutylthiazol-2-ylamino) propanoic acid] | 1 to 10 µM
8 | CC(C)Cc1sc(NCC(NC(=O)OCc2ccccc2)C(=O)O)nc1-c1ccc(Cl)c(Cl)c1 (stereo not shown) [I-138, 2-(benzyloxycarbonylamino)-3-(4-(3,4-dichlorophenyl)-5-isobutylthiazol-2-ylamino) propanoic acid] | ≤ 1 µM
9 | CCOC(=O)NC1CN(c2nc(-c3ccc(Cl)c(Cl)c3)c(CC(C)C)s2)C1=O (stereo not shown) [I-139, ethyl 1-(4-(3,4-dichlorophenyl)-5-isobutylthiazol-2-yl)-2-oxoazetidin-3-ylcarbamate] | 1 to 10 µM
10 | CC(=O)NC(CNc1nc(-c2ccc(Cl)c(Cl)c2)c(CC(C)C)s1)C(=O)O (stereo not shown) [I-140] | > 10 µM
11 | CC(C)Cc1sc(Nc2ccccc2C(=O)O)nc1-c1ccc(Cl)c(Cl)c1 [I-141, 2-(4-(3,4-dichlorophenyl)-5-isobutylthiazol-2-ylamino)benzoic acid] | 1 to 10 µM
12 | CC(C)Cc1sc(N(Cc2ccccc2)C(=O)CC(=O)O)nc1-c1ccc(Cl)c(Cl)c1 [I-143, 3-(benzyl(4-(3,4-dichlorophenyl)-5-isobutylthiazol-2-yl)amino)-3-oxopropanoic acid] | > 10 µM
13 | CC(C)Cc1sc(N(CCC(=O)O)C(=O)c2ccccc2)nc1-c1ccc(Cl)c(Cl)c1 [I-144] | 1 to 10 µM
14 | CC(C)Cc1sc(NCC(CCCCN(C)C)C(=O)O)nc1-c1ccc(Cl)c(Cl)c1 (stereo not shown) [I-145, 2-((4-(3,4-dichlorophenyl)-5-isobutylthiazol-2-ylamino)methyl)-6-(dimethylamino) hexanoic acid] | > 10 µM
15 | CC(C)Cc1sc(N(CCCCN)CCC(=O)O)nc1-c1ccc(Cl)c(Cl)c1 [I-146, 3-((4-aminobutyl)(4-(3,4-dichlorophenyl)-5-isobutylthiazol-2-yl)amino)propanoic acid] | > 10 µM
16 | CC(C)Cc1sc(N(CCCCN(C)C)CCC(=O)O)nc1-c1ccc(Cl)c(Cl)c1 [I-147, 3-((4-(3,4-dichlorophenyl)-5-isobutylthiazol-2-yl)(4-(dimethylamino)butyl)amino) propanoic acid] | 1 to 10 µM
17 | CC(C)Cc1sc(N(CCCCCCN)CCC(=O)O)nc1-c1ccc(Cl)c(Cl)c1 [I-148] | > 10 µM
18 | CC(C)Cc1sc(N(CCCCCC(N)=O)CCC(=O)O)nc1-c1ccc(Cl)c(Cl)c1 [I-149] | > 10 µM
19 | Cc1cc(CC(CNc2nc(-c3ccc(Cl)c(Cl)c3)c(CC(C)C)s2)C(=O)O)cc(C)n1 (stereo not shown) [I-150] | 1 to 10 µM
20 | Cc1cc(CC(CNc2nc(-c3ccc(Cl)c(Cl)c3)c(CC(C)C)s2)C(=O)O)ccn1 (stereo not shown) [I-151] | 1 to 10 µM
21 | CC(C)Cc1sc(NCC(Cc2ccncc2)C(=O)O)nc1-c1ccc(Cl)c(Cl)c1 (stereo not shown) [I-152] | 1 to 10 µM
22 | CC(C)Cc1sc(NCC(Cc2ccc(N)nc2)C(=O)O)nc1-c1ccc(Cl)c(Cl)c1 (stereo not shown) [I-153] | > 10 µM
23 | CC(C)Cc1sc(NCC(Cc2ccc(N(C)C)nc2)C(=O)O)nc1-c1ccc(Cl)c(Cl)c1 (stereo not shown) [I-154] | 1 to 10 µM
24 | CC(C)Cc1sc(NCC(Cc2cccnc2)C(=O)O)nc1-c1ccc(Cl)c(Cl)c1 (stereo not shown) [I-155] | 1 to 10 µM
25 | Cc1ncccc1CC(CNc1nc(-c2ccc(Cl)c(Cl)c2)c(CC(C)C)s1)C(=O)O (stereo not shown) [I-156] | 1 to 10 µM

Row | SMILES | IC50
26 | Cc1ccc(CC(CNc2nc(-c3ccc(Cl)c(Cl)c3)c(CC(C)C)s2)C(=O)O)c(C)n1 (stereo not shown) [I-157] | 1 to 10 µM
27 | CC(C)Cc1sc(NCC(Cc2ccccn2)C(=O)O)nc1-c1ccc(Cl)c(Cl)c1 (stereo not shown) [I-158] | 1 to 10 µM
28 | CC(C)Cc1sc(NCC(Cc2cnc(O)nc2)C(=O)O)nc1-c1ccc(Cl)c(Cl)c1 (stereo not shown) [I-159, 3-(4-(3,4-dichlorophenyl)-5-isobutylthiazol-2-ylamino)-2-((2-hydroxypyrimidin-5-yl)methyl)propanoic acid] | 1 to 10 µM
29 | COc1ncc(CC(CNc2nc(-c3ccc(Cl)c(Cl)c3)c(CC(C)C)s2)C(=O)O)cn1 (stereo not shown) [I-160] | > 10 µM
30 | CC(C)Cc1sc(NCC(Cc2ccncn2)C(=O)O)nc1-c1ccc(Cl)c(Cl)c1 (stereo not shown) [I-161] | 1 to 10 µM
31 | CC(C)Cc1sc(NCC(Cc2ccc(O)nc2)C(=O)O)nc1-c1ccc(Cl)c(Cl)c1 (stereo not shown) [I-162] | 1 to 10 µM
32 | COc1ccc(CC(CNc2nc(-c3ccc(Cl)c(Cl)c3)c(CC(C)C)s2)C(=O)O)cn1 (stereo not shown) [I-163] | 1 to 10 µM
33 | CC(C)Cc1sc(NCC(Cc2ccnc(O)c2)C(=O)O)nc1-c1ccc(Cl)c(Cl)c1 (stereo not shown) [I-164] | 1 to 10 µM
34 | COc1cc(CC(CNc2nc(-c3ccc(Cl)c(Cl)c3)c(CC(C)C)s2)C(=O)O)ccn1 (stereo not shown) [I-165] | 1 to 10 µM
35 | CC(C)Cc1sc(NCC(Cc2ccc(C(N)=O)cc2)C(=O)O)nc1-c1ccc(Cl)c(Cl)c1 (stereo not shown) [I-166, 2-(4-carbamoylbenzyl)-3-(4-(3,4-dichlorophenyl)-5-isobutylthiazol-2-ylamino)propanoic acid] | 1 to 10 µM
36 | CC(C)Cc1sc(NCC(Cc2cccc(C(N)=O)c2)C(=O)O)nc1-c1ccc(Cl)c(Cl)c1 (stereo not shown) [I-167] | 1 to 10 µM
37 | CC(C)Cc1sc(NCC(Cc2cccc(C(=O)N(C)C)c2)C(=O)O)nc1-c1ccc(Cl)c(Cl)c1 (stereo not shown) [I-168, 3-(4-(3,4-dichlorophenyl)-5-isobutylthiazol-2-ylamino)-2-(3-(dimethylcarbamoyl)benzyl)propanoic acid] | 1 to 10 µM
38 | CNC(=O)c1cccc(CC(CNc2nc(-c3ccc(Cl)c(Cl)c3)c(CC(C)C)s2)C(=O)O)c1 (stereo not shown) [I-169] | 1 to 10 µM
39 | CC(C)Cc1sc(N2CCN(c3ccccc3)C(C(=O)O)C2)nc1-c1ccc(Cl)c(Cl)c1 (stereo not shown) [I-170] | 1 to 10 µM
40 | CSc1cccc(CC(CNc2nc(-c3ccc(Cl)c(Cl)c3)c(CC(C)C)s2)C(=O)O)c1 (stereo not shown) [I-171] | ≤ 1 µM
41 | CC(C)Cc1sc(NCC(Cc2cccc(S(C)(=O)=O)c2)C(=O)O)nc1-c1ccc(Cl)c(Cl)c1 (stereo not shown) [I-172] | 1 to 10 µM
42 | CC(C)Cc1sc(NCC(Cc2cccc(S(N)(=O)=O)c2)C(=O)O)nc1-c1ccc(Cl)c(Cl)c1 (stereo not shown) [I-173] | 1 to 10 µM
43 | CSc1ccc(CC(CNc2nc(-c3ccc(Cl)c(Cl)c3)c(CC(C)C)s2)C(=O)O)cc1 (stereo not shown) [I-174] | ≤ 1 µM
44 | CC(C)Cc1sc(NCC(Cc2ccc(S(C)(=O)=O)cc2)C(=O)O)nc1-c1ccc(Cl)c(Cl)c1 (stereo not shown) [I-175] | 1 to 10 µM
45 | CC(C)Cc1sc(NCC(Cc2ccc(S(N)(=O)=O)cc2)C(=O)O)nc1-c1ccc(Cl)c(Cl)c1 (stereo not shown) [I-176] | 1 to 10 µM
46 | O=C(O)C(CNc1nc(-c2ccc(Cl)c(Cl)c2)c(C2CCCC2)s1)Cc1ccccc1 (stereo not shown) [I-177] | ≤ 1 µM
47 | O=C(O)C(CNc1nc(-c2ccc(Cl)c(Cl)c2)c(C2CCC2)s1)Cc1ccccc1 (stereo not shown) [I-178] | 1 to 10 µM
48 | O=C(O)C(CNc1nc(-c2ccc(Cl)c(Cl)c2)c(CC2CC2)s1)Cc1ccccc1 (stereo not shown) [I-179] | 1 to 10 µM
49 | CC(C)CCc1sc(NCC(Cc2ccccc2)C(=O)O)nc1-c1ccc(Cl)c(Cl)c1 (stereo not shown) [I-180] | ≤ 1 µM
